# Reference: patent US8371376B2, “Method for pre-treatment of subterranean sites adjacent to water injection wells” (E. I. du Pont de Nemours and Company, priority 2010, dated 2013)
# Assay: Titration of sand/amine/brine mixture with 1N HCl, amine concentration by GC
# Assay type: physicochemical
# Conditions: initial pH 8.4, before HCl addition; 380 ppm expected if all dissolved
# Description: Helium was used as the carrier gas.
# 38 milligrams (mg) of N N-Dimethyl-1-Dodecanamine (hereafter referred to as “the amine”) was added to 10.210 gr of Pentane. This solution was added to 10.1845 gr of specific sand layers (Oa and Ob) obtained from the Schrader Bluff formation of the Milne Point Unit of the Alaskan North slope. The oil content of the sand was first removed using a mixture of methanol and toluene (50/50, volume/volume) as solvent washes. The solvent mixture was subsequently evaporated off the core sand to produce clean, dry, flowable core sand. This sand was mixed with the amine and pentane solution to produce a slurry. This slurry was thoroughly mixed and the pentane was evaporated off leaving the amine on the sand (hereafter referred to as sand/amine mixture). 100 ml of brine #2 (Table 3) was added to the sand/amine mixture to create the sand/amine/brine mixture. […] The fact that the amine was not detected underlined its strong binding to the sand particles. […] The data underlines the remarkable efficiency of an acid at ionizing and removing the amine from the sand.
smiles,measurement,value
"CCCCCCCCCCCCN(C)C [N-N-dimethyl-1-dodeanamine, N N-Dimethyl-1-Dodecanamine]",amine conc. in sand/amine/brine mixture,< 1 ppm
